The values that follow come from patent US6201001A, “Imidazole antiproliferative agents” (Abbott Laboratories, priority 1999, dated 2001).

Experiment [1] concerns human colon adenocarcinoma, MDR positive (HCT-15) cells. The experiment in a line: 48-hour cellular proliferation assay, HCT-15 cells (sulforhodamine). The format is cell-based. The following applies: HCT-15, 48-hour. The protocol:
(§1) Compounds of this invention were tested in a 48-hour cellular proliferation assay which uses human colon adenocarcinoma, MDR positive (HCT-15) cells, and human lung large cell carcinoma, MDR negative (NCI-H460) cells, in the 96-well microtitre format described in Skehan P., et al. New Colorimetric Cytotoxicity Assay for Anticancer Drug Screening. 1990, J. Natl. Cancer Inst. 82:1107-1112, hereby incorporated by reference. Briefly, the wells of a microtitre plate were charged sequentially with cultured cells and compounds of the invention (1.0×10^-4 to 1.0×10^-11 M in 10% DMSO prepared by dissolving compounds of the invention in DMSO and adding 11 μL of the DMSO solution to 100 μL of culture medium for a final DMSO concentration of 10%). Two of the following controls were also present in each microtitre plate: a solvent (DMSO) control without drug that yielded a 0% inhibition level and a trichloroacetic acid-treated well that yielded a 100% inhibition level. The cells were grown in culture (37° C., 5% CO2 atmosphere) for 48 hours then fixed by the addition of trichloroacetic acid. The wells were stained with sulforhodamine, washed with 1% acetic acid, and treated with 0.01M tris buffer (100 μL) to solubilize the adherent dye. The absorbance of the dye solution was measured with a Molecular Devices SpectraMax340 plate reader. The percent inhibition values were obtained by calculating the proportional response of the experimental values to the absorbance values of the controls.

In experiment [2] the test system is human lung large cell carcinoma, MDR negative (NCI-H460) cells. The experiment in a line: 48-hour cellular proliferation assay, NCI-H460 cells (sulforhodamine). The format is cell-based. The following applies: NCI-H460, 48-hour. The protocol:
as §1

As for `COc1ccc(-c2c(-c3cc(OC)c(OC)c(OC)c3)ncn2C)cc1N` [Example 1, 2-methoxy-5-(1-methyl-4-(3,4,5-trimethoxyphenyl)-1H-imidazol-5-yl)phenylamine], the IC50 in experiment [1] stood at 220 nM; in experiment [2] it was 170 nM.

Take `COc1ccc(-c2ncn(C)c2-c2cc(OC)c(OC)c(OC)c2)cc1N` [Example 2, 2-methoxy-5-(1-methyl-5-(3,4,5-trimethoxyphenyl)-1H-imidazol-4-yl)phenylamine]: the half-inhibitory concentration (IC50) was determined as 79 nM in experiment [1] and 34 nM in experiment [2].

With `COc1ccc(-c2c(-c3cc(OC)c(OC)c(OC)c3)ncn2C)cc1F` [Example 3, 5-(3-fluoro-4-methoxyphenyl)-1-methyl-4-(3,4,5-trimethoxyphenyl)-1H-imidazole], the values for the IC50 in experiment [1] and in experiment [2] were 850 nM and 920 nM, respectively.

With `COc1cc(-c2ncn(C)c2-c2ccc(N(C)C)cc2)cc(OC)c1OC` [Example 4, N,N-dimethyl-4-[1-methyl-4-(3,4,5-trimethoxyphenyl)-1H-imidazol-5-yl]aniline], the IC50 in experiment [1] amounted to 250 nM; in experiment [2], 400 nM.
